Experiment [1] concerns the target IRAK4 (Homo sapiens (Human), UniProt Q9NWZ3). Put plainly: IRAK4 Inhibition Assay. The experiment is classed as biochemical. To be noted: ATP 500 μM; IRAK4 0.6 nM. The procedure, abridged:
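Mobility-shift kinase assay: 0.6 nM IRAK4, 500 μM ATP, 1.5 μM fluorescent peptide, 60 min, room temperature. Percent inhibition was normalised between enzyme-free and DMSO-only wells.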

Experiment [2] relates to Human whole blood stimulated with a TLR2 agonist (lipoteichoic acid), IL-6 levels. The experiment can be described thus: IRAK4 Whole Blood Assay. The experiment is classed as cell-based. To be noted: lipoteichoic acid 10 μg/mL. Here is the method: Human whole blood containing the anti-coagulant ACD-A was plated in 384-well plate (25 μL/well) and incubated with compounds for 60 minutes at 37° C. in a 5% CO2 incubator. The blood was stimulated with a TLR2 agonist, 10 μg/mL final concentration of lipoteichoic acid (Invivogen, San Diego, Calif.) in 25 μL RPMI (Gibco) for 5 hours in a 5% CO2 incubator. At the end of the incubation, plates were centrifuged at 2300 rpm for 5 minutes. Supernatants were harvested and analyzed for IL-6 levels by Flow Cytometry beads assay (BD Biosciences, San Jose, Calif.).

IRAK4, sequence (Q9NWZ3 whole entry, species assumed): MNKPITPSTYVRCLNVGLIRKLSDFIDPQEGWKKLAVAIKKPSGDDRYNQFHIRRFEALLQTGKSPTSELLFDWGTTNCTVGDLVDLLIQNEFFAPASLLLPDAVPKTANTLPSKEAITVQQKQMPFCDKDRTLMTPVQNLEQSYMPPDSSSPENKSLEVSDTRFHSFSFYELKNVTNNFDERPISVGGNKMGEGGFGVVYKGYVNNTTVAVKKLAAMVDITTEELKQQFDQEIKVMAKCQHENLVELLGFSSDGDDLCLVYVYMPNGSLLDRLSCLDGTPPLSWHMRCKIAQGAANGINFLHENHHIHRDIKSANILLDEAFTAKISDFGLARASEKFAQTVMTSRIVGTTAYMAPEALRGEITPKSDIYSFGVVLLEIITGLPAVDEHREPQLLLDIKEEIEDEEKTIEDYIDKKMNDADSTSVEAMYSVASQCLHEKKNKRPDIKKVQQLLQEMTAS

As for `CC(F)Cn1cc(-c2cnc(-n3ncc4cc(C#N)cnc43)cc2NC(C)C)nn1` (single isomer, unassigned; enantiomer 2) [Example 167, 1-(5-(1-(2-fluoropropyl)-1H-1,2,3-triazol-4-yl)-4-(isopropylamino)pyridin-2-yl)-1H-pyrazolo[3,4-b]pyridine-5-carbonitrile, enantiomer 2], the IC50 in experiment [1] came to 7 nM. Moreover, it took 1030 nM to reach a half-maximal effect in experiment [2] (EC50).

`CC(C)Nc1cc(-n2ccc3cncnc32)ncc1-c1cn(CCO)nn1` [Example 1, 2-(4-(4-(isopropylamino)-6-(7H-pyrrolo[2,3-d]pyrimidin-7-yl)pyridin-3-yl)-1H-1,2,3-triazol-1-yl)ethanol]: the IC50 in experiment [1] turned out to be 7 nM. The molecule further had an EC50 in experiment [2] (Homo sapiens) of 830 nM.

For `CCOC(=O)Cn1cc(-c2cnc(-n3ccc4cncnc43)cc2NC(C)C)nn1` [Example 2, ethyl 2-(4-(4-(isopropylamino)-6-(7H-pyrrolo[2,3-d]pyrimidin-7-yl)pyridin-3-yl)-1H-1,2,3-triazol-1-yl)acetate], in experiment [1], the IC50 was 1 nM. In addition, the EC50 in experiment [2] (Homo sapiens) came out at 10000 nM.

For `CC(C)Nc1cc(-n2ccc3cncnc32)ncc1-c1cn(CCCCCN)nn1` [Example 5, 5-(1-(5-aminopentyl)-1H-1,2,3-triazol-4-yl)-N-isopropyl-2-(7H-pyrrolo[2,3-d]pyrimidin-7-yl)pyridin-4-amine], the IC50 in experiment [1] worked out at 3 nM. In addition, the midpoint of the response in experiment [2] (Homo sapiens), the EC50, lay at 2130 nM.

With `CC(C)Nc1cc(-n2ncc3cc(C#N)cnc32)ncc1-c1cn(C2CCCCC2)nn1` [Example 17, 1-(5-(1-cyclohexyl-1H-1,2,3-triazol-4-yl)-4-(isopropylamino)pyridin-2-yl)-1H-pyrazolo[3,4-b]pyridine-5-carbonitrile], the half-inhibitory concentration (IC50) in experiment [1] is 5 nM. The molecule further returned an EC50 in experiment [2] (Homo sapiens) of 1970 nM.

Consider `CC(C)Nc1cc(-n2ncc3cc(C#N)cnc32)ncc1-c1cn(-c2ccccc2F)nn1` [Example 20, 1-(5-(1-(2-fluorophenyl)-1H-1,2,3-triazol-4-yl)-4-(isopropylamino)pyridin-2-yl)-1H-pyrazolo [3,4-b]pyridine-5-carbonitrile], for which the IC50 in experiment [1] was 7 nM. Further, the EC50 in experiment [2] (Homo sapiens) worked out at 20000 nM.

As for `CC(C)Nc1cc(-n2ncc3cc(C#N)cnc32)ncc1-c1cn(C2CCN(C)C2=O)nn1` (stereo not shown) [Example 22, 1-(4-(isopropylamino)-5-(1-(1-methyl-2-oxopyrrolidin-3-yl)-1H-1,2,3-triazol-4-yl)pyridin-2-yl)-1H-pyrazolo[3,4-b]pyridine-5-carbonitrile], the IC50 in experiment [1] turned out to be 4 nM. The EC50 in experiment [2] amounted to 490 nM.

In the case of `CC(C)Nc1cc(-n2ncc3cc(C#N)cnc32)ncc1-c1cn(CCCO)nn1` [Example 28, 1-(5-(1-(3-hydroxypropyl)-1H-1,2,3-triazol-4-yl)-4-(isopropylamino)pyridin-2-yl)-1H-pyrazolo [3,4-b]pyridine-5-carbonitrile], the IC50 in experiment [1] was found to be 6 nM. In experiment [2] (Homo sapiens), this molecule displayed an EC50 of 1910 nM.

With `CCn1cc(-c2cnc(-n3ncc4cc(Cl)cnc43)cc2NC(C)C)nn1` [Example 39, 2-(5-chloro-1H-pyrazolo[3,4-b]pyridin-1-yl)-5-(1-ethyl-1H-1,2,3-triazol-4-yl)-N-isopropylpyridin-4-amine], the IC50 in experiment [1] stood at 14 nM. In experiment [2] (Homo sapiens), this molecule showed an EC50 of 4300 nM.

In the case of `CC(C)Nc1cc(-n2ncc3cc(C#N)cnc32)ncc1-c1cn(CCCF)nn1` [Example 44, 1-(5-(1-(3-fluoropropyl)-1H-1,2,3-triazol-4-yl)-4-(isopropylamino)pyridin-2-yl)-1H-pyrazolo [3,4-b]pyridine-5-carbonitrile], the IC50 in experiment [1] turned out to be 7 nM. In addition, the EC50 in experiment [2] (Homo sapiens) was 630 nM.

For `CC(C)Nc1cc(-n2ncc3cc(C#N)c(N)nc32)ncc1-c1cn(CCCF)nn1` [Example 46, 6-amino-1-(5-(1-(3-fluoropropyl)-1H-1,2,3-triazol-4-yl)-4-(isopropylamino)pyridin-2-yl)-1H-pyrazolo[3,4-b]pyridine-5-carbonitrile], the IC50 in experiment [1] is 14 nM. Besides, in experiment [2] (Homo sapiens), the EC50 amounted to 490 nM.

For `CC(C)Nc1cc(-n2cnc3cc(C#N)cnc32)ncc1-c1cn(CCc2ccccc2)nn1` [Example 57, 3-(4-(isopropylamino)-5-(1-phenethyl-1H-1,2,3-triazol-4-yl)pyridin-2-yl)-3H-imidazo[4,5-b]pyridine-6-carbonitrile], the IC50 in experiment [1] amounted to 3 nM. In addition, it took 610 nM to reach a half-maximal effect in experiment [2] (Homo sapiens) (EC50).

Turning to `CC(C)Nc1cc(-n2ncc3cc(C#N)cnc32)ncc1-c1cn(C[C@H](C)O)nn1` [Example 65, (S)-1-(5-(1-(2-hydroxypropyl)-1H-1,2,3-triazol-4-yl)-4-(isopropylamino)pyridin-2-yl)-1H-pyrazolo[3,4-b]pyridine-5-carbonitrile], in experiment [1], the IC50 is 9 nM. Also, the response in experiment [2] (Homo sapiens) was half-maximal at 420 nM (EC50).

Consider `CC(C)Nc1cc(-n2cnc3cc(C#N)cnc32)ncc1-c1cn(C[C@H](C)O)nn1` [Example 69, (S)-3-(5-(1-(2-hydroxypropyl)-1H-1,2,3-triazol-4-yl)-4-(isopropylamino)pyridin-2-yl)-3H-imidazo[4,5-b]pyridine-6-carbonitrile], for which, in experiment [1], the IC50 turned out to be 10 nM. Besides, in experiment [2] (Homo sapiens), the EC50 came to 1370 nM.

As for `CC(C)Nc1cc(-n2ncc3cc(C#N)c(N)nc32)ncc1-c1cn(C[C@H](C)O)nn1` [Example 70, (S)-6-amino-1-(5-(1-(2-hydroxypropyl)-1H-1,2,3-triazol-4-yl)-4-(isopropylamino)pyridin-2-yl)-1H-pyrazolo[3,4-b]pyridine-5-carbonitrile], the IC50 in experiment [1] was 5 nM. The same molecule came in with an EC50 in experiment [2] (Homo sapiens) of 3960 nM.

With `CC(C)Nc1cc(-n2ncc3cc(C#N)cnc32)ncc1-c1cn(C[C@@H](O)c2ccccc2)nn1` [Example 84, (S)-1-(5-(1-(2-hydroxy-2-phenylethyl)-1H-1,2,3-triazol-4-yl)-4-(isopropylamino)pyridin-2-yl)-1H-pyrazolo[3,4-b]pyridine-5-carbonitrile], the IC50 in experiment [1] was 5 nM. In experiment [2] (Homo sapiens), this molecule came in with an EC50 of 530 nM.

Turning to `CC(C)Nc1cc(-n2ncc3cc(C#N)cnc32)ncc1-c1cn([C@@H](CO)c2ccccc2)nn1` [Example 86, (R)-1-(5-(1-(2-hydroxy-1-phenylethyl)-1H-1,2,3-triazol-4-yl)-4-(isopropylamino)pyridin-2-yl)-1H-pyrazolo[3,4-b]pyridine-5-carbonitrile], the IC50 in experiment [1] turned out to be 18 nM. For the same molecule, the EC50 in experiment [2] (Homo sapiens) was 1770 nM.

For `CC(C)Nc1cc(-n2ncc3cc(C#N)cnc32)ncc1-c1cn([C@H](CO)c2ccccc2)nn1` [Example 87, (S)-1-(5-(1-(2-hydroxy-1-phenylethyl)-1H-1,2,3-triazol-4-yl)-4-(isopropylamino)pyridin-2-yl)-1H-pyrazolo[3,4-b]pyridine-5-carbonitrile], the IC50 in experiment [1] came to 9 nM. This molecule showed a half-maximal effective concentration (EC50) in experiment [2] (Homo sapiens) of 4530 nM.

In the case of `CC(C)Nc1cc(-n2ncc3cc(C#N)cnc32)ncc1-c1cn(C[C@H]2CCCN2C(=O)OC(C)(C)C)nn1` [Example 99, (R)-tert-butyl 2-((4-(6-(5-cyano-1H-pyrazolo[3,4-b]pyridin-1-yl)-4-(isopropylamino)pyridin-3-yl)-1H-1,2,3-triazol-1-yl)methyl)pyrrolidine-1-carboxylate], in experiment [1], the IC50 amounted to 8 nM. Also, the EC50 in experiment [2] (Homo sapiens) is 3370 nM.

Take `CC(C)Nc1cc(-n2ncc3cc(C#N)cnc32)ncc1-c1cn(C2CN(C(=O)OC(C)(C)C)C2)nn1` [Example 113, tert-butyl 3-(4-(6-(5-cyano-1H-pyrazolo [3,4-b]pyridin-1-yl)-4-(isopropylamino)pyridin-3-yl)-1H-1,2,3-triazol-1-yl)azetidine-1-carboxylate]: the IC50 in experiment [1] turned out to be 13 nM. Also, in experiment [2] (Homo sapiens), the EC50 amounted to 1860 nM.

(Values after US10294229B2, “Heteroaryl substituted aminopyridine compounds” (BRISTOL-MYERS SQUIBB COMPANY, priority 2015, dated 2019).)
